“Also recorded” adds a separate entry of the source.
Legend:
[1] = test system: icIL-1ra type 1 mRNA; test: antisense oligonucleotide against icIL-1ra type 1 in HF-icIL-1ra fibroblasts, MMP-1 mRNA by RT-PCR; format: cell-based, human; conditions: for MMP-1 mRNA levels: HF-icIL-1ra, vs PBS, empty liposome, scrambled oligonucleotide
Procedure: Phosphorothioate-derivatized antisense oligodeoxynucleotide complimentary to −6 to +12 of the natural icIL-1ra was synthesized and purified by HPLC Integrated DNA Technologies Inc. (Coralville, Iowa). As a control, antisense oligonucleotide with a scrambled sequence was prepared by a similar method. Fibroblasts over-expressing icIL-1ra type 1 were transfected with […] of antisense icIL-1ra type 1 oligonucleotide (24 h prior to stimulation with 100 pg/ml of IL-1 beta) using LipofectAMINE™ protocol. PBS and LipofectAMINE™ alone served as additional controls. The cells were harvested 12-18 h after stimulation for RNA extraction. Total RNA was reverse transcribed and MMP-1 mRNA was estimated by semi-quantitative RT-PCR.
Fibroblasts over-expressing icIL-1ra type 1 were transfected with different concentrations of antisense icIL-1ra type 1 oligonucleotide (24 h prior to stimulation with IL-1β) using LipofectAMINE. PBS alone, LipofectAMINE alone and treatment with oligonucleotide having scrambled sequence served as controls. The cells were harvested 12-18 h after stimulation for RNA extraction. Total RNA was reverse transcribed and MMP-1 mRNA was estimated by real time RT-PCR. The values indicate mean±SD of three independent experiments performed on same batch of transfected geneticin selected fibroblasts (LIPO: LipofectAMINE alone, ANTIS-LIP: Antisense icIL-1ra oligonucleotide+LipofectAMINE, SCRAM-LIP: Scrambled oligonucleotide+LipofectAMINE).
Cells transfected with intracellular isoform of IL-1 receptor antagonist type 1 (HF-icIL-1ra) were treated with varying concentrations of antisense oligonucleotide directed against the intracellular isoform of IL-1 receptor antagonist type 1 mRNA. Oligonucleotide with a scrambled sequence was used as control. Both oligonucleotides were mixed with LipofectAMINE™ reagent to enhance cellular uptake.
Using the approach described in Example 5, a phosphorothioate-derivatized antisense oligodeoxynucleotide complimentary to −6 to +12 (5′-CGTCTGTAAAGGCATGGG-3′ SEQ ID NO: 41) of the natural icIL-1ra type 1 was synthesized and RHPLC purified. […]

[2] = test system: collagenase (MMP-1); test: IL-1β-induced collagenase (MMP-1) production by dermal fibroblasts, ELISA; format: cell-based, human; conditions: added 2 hours before IL-1β, 48 hrs, IL1β + PBS 1351, PBS + PBS 556
Procedure: Confluent fibroblast monolayer cultures were treated for 2 hr with IL-1ra peptides and cultured for 48 h with hrIL-1β. Collagenase protein was measured in culture supernatants by ELISA.
Furthermore, the effect of the IL-1ra peptides on the stimulation of MMP-1 and TIMP expression was examined. Briefly, fibroblasts were seeded in wells of Flacon 3008 multiwell plates (5×10^4 cells/500 μl Maintenance Medium). After 72 h culture, the medium was removed from each well and replaced with Maintenance Medium (450 μl) containing 5% FCS and 25 μl of IL-1ra peptides or hrsIL-1ra peptide being tested. Two hrs later 25 μl IL-1β (100 pg/ml) was added to appropriate wells. Plates were incubated for 48 h, at which time medium was collected from each well. Levels of TIMP and collagenase produced by fibroblasts during culture were measured by specific ELISA techniques as previously described (Postlethwaite et al., 1988).

[3] = test system: collagen-induced arthritis (CIA); test: collagen-induced arthritis in DBA/1 mice, peptide by osmotic pump; format: in vivo
Procedure: The mice (total=20) were immunized by subcutaneous injection at the base of the tail with 100 μg/ml of bovine CII in CFA at day 0. At day 20, an Alzet Osmotic pump-2004 containing 1.67 mg NLS-IL-1ra (1-35) peptide (SEQ ID NO: 18) in 200 microliters D5W solvent (n=10) or the solvent alone (n=10) was surgically inserted subcutaneously in each of 10 mice. Beginning at 21 days after immunization, mice were monitored for the severity (FIG. 40A) and incidence (FIG. 40B) of arthritis.
For osmotic pump delivery of peptide, at day 20 following immunization, an Alzet Osmotic pump-2004 (Durect Corporation, Cupertino, Calif.), containing 1.67 mg NLS-ILra 1-35 peptide in 200 microliters D5W solvent was surgically inserted subcutaneously in each of 10 mice. According to the manufacturer's specifications, the pumps are designed to inject constantly for 4 weeks at the speed of […] 6 μl (50 μg peptide)/day. Each of the 10 control mice received a pump containing same amount D5W only. Animals were periodically monitored for incidence and severity of arthritis and scored as described above.

[4] = test system: collagenase; test: TNF alpha-stimulated fibroblast collagenase production; format: cell-based; conditions: TNF alpha + PBS 9391, PBS 645
Procedure: (§1) To potentially enhance translocation of the peptide, a nuclear localization sequence (NLS), namely, KKKMEKR from human IL-1β was added to the peptide with SEQ ID NO: 13 and the effect of the peptide with and without the NLS on collagenase production was assessed. In this case the cultures were stimulated with TNF-α or basic fibroblast growth factor (bFGF).

[5] = test system: collagenase; test: bFGF-stimulated fibroblast collagenase production; format: cell-based; conditions: bFGF + PBS 5058, PBS 645
Procedure: as §1

[6] = test system: collagen-induced arthritis (CIA); test: collagen-induced arthritis in DBA/1 lac mice, peptides by s.c. injection; format: in vivo; conditions: s.c. 227 μg/kg once daily, 5 consecutive days each week, day 22 to day 50, vs control peptide IL-1ra 37-30
Procedure: Groups of 12 mice were treated with subcutaneous injections of NLS-IL-1ra 1-35 (SEQ ID NO: 18), NLS-IL-1ra 30-37 ([…]) or IL-1ra 37-30 (SEQ ID NO: 43) as a control beginning day 22 to day 50. Mice were injected once each consecutive 5 days out of each week. Mean arthritic score is shoon. P values are determined by Students' t test.
The peptides disclosed in table 11 were delivered to the mice using 2 approaches. The first approach consisted of daily injections for 5 days each week via the subcutaneous (s.c.) route after the first appearance of clinical arthritis. The second approach consisted of continuous delivery via a subcutaneously implanted osmotic pump. For these studies, the following protocols were used: Since a smaller fragment of the 37 amino acid IL-1ra peptide containing amino acids LVAGY (SEQ ID NO: 42) inhibit IL-1β, TNFα, and bFGF induction of MMP-1 in human fibroblasts in vitro, effects of several peptides containing the LVAGY (SEQ ID NO: 42) sequence (Table 11) on CIA in mice was examined.
For s.c. injected route of delivery, 36 six-week old female DBA-1 lac mice were immunized with a stable emulsion of complete Freund's adjuvant (CFA) and native bovine II prepared as previously described (Seyer et al., 1989). Each mouse received 100 μg CII in 50 μl of the CFA CII emulsion intradermally at the base of the tail. Beginning day 14 post immunization, mice were examined for the presence of paw swelling as an indication of the onset of arthritis. On day 21 post immunization, the first paw swelling occurred in 2 mice and on day 22 post immunization, mice were divided into groups of 12. NLS-IL-1ra 1-35 (SEQ ID NO: 18), NSL-IL-1ra 30-37 (SEQ ID NO: 43), and reverse control peptide IL-1ra 37-30 (SEQ ID NO: 44) were separately administered s.c. to groups of 12 mice beginning on day 22 post immunization to day 50 post immunization. […] Results described herein are expressed as the mean arthritic score per mouse arrived at by adding up the total joint scores for mice in each group divided by the number of mice in the group.

[7] = IL1β (100 pg/mL) + peptide 100 ng/mL
[8] = IL1β (100 pg/mL) + peptide 1 μg/mL
[9] = IL1β (100 pg/mL) + peptide 10 μg/mL

Which “reduced expression of MMP-1 mRNA and protein in icIL-1ra transfected fibroblasts” value ([1]; FIG. 36) does the source give for “5′-CGTCTGTAAAGGCATGGG-3′ (DNA, all phosphorothioate, methylation of C not given here)” here?
The value was “reversed”.

What about the “MMP-1 mRNA levels” value ([1]; 200 mM antisense, 1.0 ng/ml hrIL-1β) of the same substance?
Its value is “significantly higher”.

And the “MMP-1 mRNA levels” value ([1]; 300 mM antisense with LipofectAMINE, IL-1β stimulated, p=0.001)?
The value was “significantly higher”.

“FYLRNNQLVAGYLQG (IL-1ra peptides) [SEQ ID NO: 21]” was tested. Which Collagenase [2, 7] did it give?
The Collagenase was 2142 ng/mL.

And the Collagenase [2, 8]?
The Collagenase was 2361 ng/mL.

And the Collagenase [2, 9]?
The Collagenase was 2581 ng/mL.

What does the source list for “MQAFRIWDVNQKTFYLR (IL-1ra peptides) [SEQ ID NO: 20]”?
Collagenase [2, 7]: 2644 ng/mL; Collagenase [2, 8]: 2139 ng/mL; Collagenase [2, 9]: 2036 ng/mL

Which “incidence and severity of arthritis” value ([3]; osmotic pump from day 20, 50 μg peptide/day for 4 weeks, vs D5W solvent, listed as NLS-IL-1ra 1-35) does the source give for “KKKMEKRRPSGRKSSKMQAFRIWDVNQKTFYLRNNQLVAGYL (IL-1ra peptides) [NLS-IL-1ra]” here?
The value was “reduced; also recorded: reduces incidence and severity of arthritis”.

What about the “delay of the onset of arthritis” value ([3]; osmotic pump, incidence and severity reached control levels after this time) of the same substance?
The value was 20 days.

What about the Collagenase ([4]; TNF alpha (5 ng/ml) + peptide 100 pg/ml) of the same substance?
Its Collagenase is 243 ng/mL.

What about the Collagenase ([4]; TNF alpha (5 ng/ml) + peptide 1 ng/ml) of the same substance?
Its Collagenase is 238 ng/mL.

And the Collagenase ([4]; TNF alpha (5 ng/ml) + peptide 10 ng/ml)?
The Collagenase was 1199 ng/mL.

What about the Collagenase ([4]; TNF alpha (5 ng/ml) + peptide 100 ng/ml) of the same substance?
The Collagenase was 1254 ng/mL.

What about the Collagenase ([4]; TNF alpha (5 ng/ml) + peptide 1 μg/ml) of the same substance?
The Collagenase was 849 ng/mL.

And the Collagenase ([5]; bFGF (5 ng/ml) + peptide 100 pg/ml)?
The Collagenase was 2367 ng/mL.

What about the Collagenase ([5]; bFGF (5 ng/ml) + peptide 1 ng/ml) of the same substance?
The Collagenase was 2541 ng/mL.

And the Collagenase ([5]; bFGF (5 ng/ml) + peptide 10 ng/ml)?
Its Collagenase is 3167 ng/mL.

And the Collagenase ([5]; bFGF (5 ng/ml) + peptide 100 ng/ml)?
The Collagenase was 3199 ng/mL.

And the Collagenase ([5]; bFGF (5 ng/ml) + peptide 1 μg/ml)?
Its Collagenase is 5649 ng/mL.

And the “suppression of CIA, mean arthritic score” value [6]?
Its value is “suppressed CIA”.

How did the Collagenase [2, 7] turn out when “FYLRNNQ (IL-1ra peptides) [SEQ ID NO: 22]” was run?
The Collagenase was 1514 ng/mL.

And the Collagenase [2, 8]?
The Collagenase was 1827 ng/mL.

What about the Collagenase [2, 9] of the same substance?
Its Collagenase is 1881 ng/mL.

For “NNQLVAGY (IL-1ra peptides) [SEQ ID NO: 23]”, which Collagenase [2, 7] is on record?
Its Collagenase is 541 ng/mL.

What about the Collagenase [2, 8] of the same substance?
Its Collagenase is 619 ng/mL.

And the Collagenase [2, 9]?
The Collagenase was 1078 ng/mL.

What does the source list for “KKKMEKRLVAGYLQG (IL-1ra peptide) [NLS IL-1ra 30-37]”?
suppression of CIA, mean arthritic score ([6]; listed as NSL IL-1ra 30-37): suppressed CIA; suppression of CIA, mean arthritic score ([6]; listed as NSL-sIL-1ra 30-37): effective in reducing arthritis

With “LVAGYLQG (IL-1ra peptides) [SEQ ID NO: 24]” as the substance, how does the Collagenase [2, 7] read?
Its Collagenase is 857 ng/mL.

And the Collagenase [2, 8]?
The Collagenase was 841 ng/mL.

And the Collagenase [2, 9]?
The Collagenase was 749 ng/mL.

With “RPSGRKSSKMQAFRI (IL-1ra peptides) [SEQ ID NO: 19]” as the substance, how does the Collagenase [2, 7] read?
The Collagenase was 1746 ng/mL.

What about the Collagenase [2, 8] of the same substance?
The Collagenase was 1152 ng/mL.

And the Collagenase [2, 9]?
Its Collagenase is 1267 ng/mL.

Reference: US7674464B2, “Intracellular interleukin-1 receptor antagonists” (The University of Tennessee Research Foundation, priority 2004, dated 2010)
